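GI50 is the concentration that inhibits growth by half. TGI denotes the concentration required for complete inhibition of growth.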
What was measured:
Assay in all cases: NCI-60 cell line screen, 384-well format
HOP-92 NSCLC = test system: HOP-92 NSCLC
HCC-2998 colon = test system: HCC-2998 colon
OVCAR-5 ovarian = test system: OVCAR-5 ovarian
NCI-H23 lung = test system: NCI-H23 lung
HL-60(TB) leukemia = test system: HL-60(TB) leukemia
UO-31 renal = test system: UO-31 renal
CAKI-1 renal = test system: CAKI-1 renal
KM12 colon = test system: KM12 colon
ACHN renal = test system: ACHN renal
CCRF-CEM leukemia = test system: CCRF-CEM leukemia
K-562 leukemia = test system: K-562 leukemia
PC-3 prostate = test system: PC-3 prostate
SK-MEL-28 melanoma = test system: SK-MEL-28 melanoma
UACC-257 melanoma = test system: UACC-257 melanoma
T-47D breast = test system: T-47D breast
OVCAR-3 ovarian = test system: OVCAR-3 ovarian
MDA-MB-468 breast = test system: MDA-MB-468 breast
MDA-MB-231 breast = test system: MDA-MB-231 breast
IGROV1 ovarian = test system: IGROV1 ovarian
SF-268 CNS = test system: SF-268 CNS
HCT-116 colon = test system: HCT-116 colon
BT-549 breast = test system: BT-549 breast
A498 renal = test system: A498 renal
NCI/ADR-RES ovarian = test system: NCI/ADR-RES ovarian
SF-295 CNS = test system: SF-295 CNS
HS 578T breast = test system: HS 578T breast
A549 NSCLC = test system: A549 NSCLC
786-0 renal = test system: 786-0 renal
MDA-MB-435 melanoma = test system: MDA-MB-435 melanoma
MOLT-4 leukemia = test system: MOLT-4 leukemia

**Q.** With Cn1cc(-c2ccc(-c3ccc(C4=NC5(CC5)C(=O)N4C[C@@H]4CCN(C(=O)C5CC5)C4)cc3)cc2)cn1 as the compound, how does the GI50 (HOP-92 NSCLC) read?
**A.** The GI50 was 21.2 µM.

**Q.** And the TGI (HOP-92 NSCLC)?
**A.** Its TGI is 59.1 µM.

**Q.** And the GI50 (HCC-2998 colon)?
**A.** The GI50 was 23.7 µM.

**Q.** And the TGI (HCC-2998 colon)?
**A.** The TGI was over 79.9 µM.

**Q.** And the GI50 (OVCAR-5 ovarian)?
**A.** The GI50 was 23.4 µM.

**Q.** And the TGI (OVCAR-5 ovarian)?
**A.** Its TGI is over 100 µM.

**Q.** What about the GI50 (NCI-H23 lung) of the same compound?
**A.** The GI50 was 14.9 µM.

**Q.** What about the TGI (NCI-H23 lung) of the same compound?
**A.** Its TGI is 37.7 µM.

**Q.** And the GI50 (HL-60(TB) leukemia)?
**A.** Its GI50 is 0.0689 µM.

**Q.** And the TGI (HL-60(TB) leukemia)?
**A.** Its TGI is 16.3 µM.

**Q.** And the GI50 (UO-31 renal)?
**A.** Its GI50 is 1.06 µM.

**Q.** What about the TGI (UO-31 renal) of the same compound?
**A.** The TGI was 2.43 µM.

**Q.** What about the GI50 (CAKI-1 renal) of the same compound?
**A.** Its GI50 is 1.99 µM.

**Q.** What about the GI50 (KM12 colon) of the same compound?
**A.** The GI50 was 6.95 µM.

**Q.** And the TGI (KM12 colon)?
**A.** Its TGI is over 100 µM.

**Q.** And the GI50 (ACHN renal)?
**A.** The GI50 was 18.7 µM.

**Q.** And the TGI (ACHN renal)?
**A.** The TGI was over 90.1 µM.

**Q.** And the GI50 (CCRF-CEM leukemia)?
**A.** The GI50 was 11.7 µM.

**Q.** What about the TGI (CCRF-CEM leukemia) of the same compound?
**A.** Its TGI is 24.3 µM.

**Q.** And the GI50 (K-562 leukemia)?
**A.** The GI50 was 6.43 µM.

**Q.** And the TGI (K-562 leukemia)?
**A.** Its TGI is over 95.4 µM.

**Q.** What about the GI50 (PC-3 prostate) of the same compound?
**A.** Its GI50 is 20.4 µM.

**Q.** And the TGI (PC-3 prostate)?
**A.** The TGI was 49 µM.

**Q.** What about the GI50 (SK-MEL-28 melanoma) of the same compound?
**A.** The GI50 was 27.8 µM.

**Q.** What about the TGI (SK-MEL-28 melanoma) of the same compound?
**A.** The TGI was over 74.8 µM.

**Q.** And the GI50 (UACC-257 melanoma)?
**A.** Its GI50 is 38.4 µM.

**Q.** What about the TGI (UACC-257 melanoma) of the same compound?
**A.** Its TGI is over 74.7 µM.

**Q.** And the GI50 (T-47D breast)?
**A.** Its GI50 is 11.9 µM.

**Q.** What about the TGI (T-47D breast) of the same compound?
**A.** Its TGI is 43.9 µM.

**Q.** And the GI50 (OVCAR-3 ovarian)?
**A.** The GI50 was 13.5 µM.

**Q.** What about the TGI (OVCAR-3 ovarian) of the same compound?
**A.** The TGI was 31.2 µM.

**Q.** What about the GI50 (MDA-MB-468 breast) of the same compound?
**A.** Its GI50 is 15.8 µM.

**Q.** What about the TGI (MDA-MB-468 breast) of the same compound?
**A.** Its TGI is 38.4 µM.

**Q.** What about the GI50 (MDA-MB-231 breast) of the same compound?
**A.** The GI50 was 12.3 µM.

**Q.** And the TGI (MDA-MB-231 breast)?
**A.** The TGI was 56.1 µM.

**Q.** What about the GI50 (IGROV1 ovarian) of the same compound?
**A.** The GI50 was 25.6 µM.

**Q.** And the TGI (IGROV1 ovarian)?
**A.** Its TGI is over 100 µM.

**Q.** What about the GI50 (SF-268 CNS) of the same compound?
**A.** The GI50 was 18.4 µM.

**Q.** What about the TGI (SF-268 CNS) of the same compound?
**A.** The TGI was over 88.4 µM.

**Q.** And the GI50 (HCT-116 colon)?
**A.** The GI50 was 4.95 µM.

**Q.** And the TGI (HCT-116 colon)?
**A.** Its TGI is 27.6 µM.

**Q.** And the GI50 (BT-549 breast)?
**A.** The GI50 was 0.827 µM.

**Q.** And the TGI (BT-549 breast)?
**A.** Its TGI is 30.1 µM.

**Q.** What about the GI50 (A498 renal) of the same compound?
**A.** The GI50 was 17.6 µM.

**Q.** What about the TGI (A498 renal) of the same compound?
**A.** Its TGI is over 56.1 µM.

**Q.** And the GI50 (NCI/ADR-RES ovarian)?
**A.** The GI50 was 14.2 µM.

**Q.** What about the TGI (NCI/ADR-RES ovarian) of the same compound?
**A.** The TGI was 36.2 µM.

**Q.** What about the GI50 (SF-295 CNS) of the same compound?
**A.** The GI50 was 14.3 µM.

**Q.** And the TGI (SF-295 CNS)?
**A.** Its TGI is over 81.6 µM.

**Q.** What about the GI50 (HS 578T breast) of the same compound?
**A.** The GI50 was 10.5 µM.

**Q.** What about the TGI (HS 578T breast) of the same compound?
**A.** Its TGI is 39.1 µM.

**Q.** And the GI50 (A549 NSCLC)?
**A.** Its GI50 is 20.2 µM.

**Q.** And the TGI (A549 NSCLC)?
**A.** Its TGI is over 100 µM.

**Q.** And the GI50 ([…]-0 renal)?
**A.** The GI50 was 12.8 µM.

**Q.** What about the TGI (786-0 renal) of the same compound?
**A.** The TGI was 31.8 µM.

**Q.** And the GI50 (MDA-MB-435 melanoma)?
**A.** The GI50 was 16.1 µM.

**Q.** What about the TGI (MDA-MB-435 melanoma) of the same compound?
**A.** Its TGI is 41.4 µM.

**Q.** What about the GI50 (MOLT-4 leukemia) of the same compound?
**A.** The GI50 was 11 µM.

**Q.** What about the TGI (MOLT-4 leukemia) of the same compound?
**A.** Its TGI is 23.2 µM.
